# According to patent publication US20260297081A1, “COMPOUNDS AND METHODS OF TREATING CANCERS” (Cullgen Inc., priority 2023, published 2026):
# Columns and labels:
# Assay type in all cases: cell-based
# [1] = test system: Calu-1 cells; assay: Anti-proliferation (viability) of NSCLC Calu-1 cells, 3 days (Table 7, FIG. 2B); conditions: Homo sapiens, 72 h; Calu-1 cells, 3 days, 10-point serial dilution; read-out: GI IC50 in Calu-1
# In short: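 Treatment length differs by line: Calu-1 cells receive degrader for 3 days, T47D cells for 6 days, each over a 10-point dilution series. A warhead-modified analogue with unchanged DDB1 binder and linker served as the non-CDK4-binding control.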
# [2] = test system: T47D palbo-resistant cells; assay: CellTiter-Lumi cell viability assay, T47D palbo-resistant cells, 6 days (FIG. 4); conditions: Homo sapiens, 144 h
# Method: Furthermore, we developed one ER^+ breast cancer T47D model with acquired resistance after long period of treatment with 1 μM palbociclib (over IC90). Cells were deemed resistant when growing in the presence of palbo at the same rate as parental cells. Palbo resistance was determined by CellTiter-Lumi cell viability assay (FIG. 4, IC50>10,000 nM).
# [3] = test system: CCND3; assay: Immunoblotting of CCND3 protein level in Calu-1 and MCF7 cells (FIG. 1A-1B)
# Method: (§1) Calu-1 cells were treated with heterobifunctional compound CPD-10, or CDK4/6 inhibitor palbociclib at indicated concentrations for 4 hours (FIG. 1A). MCF7 cells were deprived of serum for 2 hours followed by treatment with CPD-10, or palbociclib at indicated concentrations for 24 hours (FIG. 1B).
# (§2) Antibody and Reagent Anti-cyclin D1 (29785), anti-cyclin D2 (3741S), anti-cyclin D3 (2936S), anti-CDK4 (127905), anti-CDK6 (3136S), anti-phospho-Rb (8516S), anti-FoxM1 (54365), anti-cyclinA2(4656S), anti-vinculin antibody (187995) antibodies were purchased from Cell Signaling Technology. HRP-conjugated anti-α-tubulin antibody and anti-α-GAPDH antibody were purchased from GNI. Media, and other cell culture reagents were purchased from Thermo Fisher Scientific. CellTiter-Glo Luminescent Assay kit was purchased from Promega.
# (§3) Calu-1, T47D, MCF7, HCC1428 and other cells were cultured at 37° C. with 5% CO2 in RPMI 1640 or DMEM medium supplemented with 10% fetal bovine serum. Cells were authenticated using the short tandem repeat (STR) assays. Mycoplasma test results were negative. For palbo-resistant cell model, T47D cells were cultured long-term to resistance in the presence of 1 μM Palbociclib. Cells were deemed resistant when growing in the presence of Palbo at the same rate as parental cells.
# (§4) Cultured cells were washed with cold PBS once and lysed in cold RIPA buffer supplemented with protease inhibitors and phosphatase inhibitors (Beyotime Biotechnology). The solutions were then incubated at 4 ? for 30 min with gentle agitation to fully lysed cells. Cell lysates were centrifuged at 13,000 rpm for 10 min at 4 ? and pellets were discarded. Total protein concentrations in the lysates were determined following BCA assays (Beyotime Biotechnology). Cell lysates were mixed with Laemmli loading buffer and heated at 99° C. for 5 min. Proteins were resolved on SDS-PAGE and visualized using Western ECL Substrate kits on a ChemiDoc MP Imaging system (Bio-Rad). Protein bands were quantitated using the Image Lab software provided by Bio-Rad.
# [4] = test system: T47D palbo-resistant cells; assay: Cell viability in T47D palbociclib-resistant model (FIG. 4); conditions: 10-point serial dilution, 6 days
# Method: T47D cells were cultured long-term to resistance in the presence of 1 μM Palbociclib. Palbo resistance was determined by CellTiter-Lumi cell viability assay. T47D parental or palbo-resistant cells were treated with palbociclib, or heterobifunctional compounds CPD-10 or CPD-39 following a 10-point serial dilution for 6 days.
# as §3
# Cells were seeded at a density of 2,000-5,000 cells per well in 96-well assay plates and treated with test compounds following a 10-point serial dilution for 3-6 days. Cell viability was determined using the CellTiter-Lumi assay kit according to the manufacturer's instructions. The dose-response curves were determined and IC50 values were calculated using the GraphPad Prism software following a nonlinear regression (least squares fit) method. Data presented was mean±standard deviation (SD)unless otherwise indicated.
# [5] = test system: T47D cells; assay: Flow cytometric analysis of Annexin V/7-AAD stained T47D cells (apoptosis), 6 days (FIG. 3A)
# Method: (§5) T47D cells were treated with DMSO, palbociclib, heterobifunctional compound CPD-10 for 6 days at doses approximating IC50and IC90 concentrations as indicated (FIG. 3A). HCC1428 cells were treated with DMSO, palbociclib, heterobifunctional compound CPD-10, or its negative control compound CPD-143 for 6 days at doses approximating IC90 concentrations as indicated (FIG. 3B). Cells were harvested by trypsinization, staining was carried out using the Annexin V Apoptosis Detection Kit. The percentages of early apoptotic (Annexin V^+7-AAD^−, lower right quadrant), late apoptotic (Annexin V^+7-AAD^+, upper right quadrant) and necrotic cells (Annexin V^−7-AAD^+, upper left quadrant) are indicated on dot plots.
# [6] = molecular target: CDK4 (Homo sapiens, UniProt P11802+Q16531); assay: Immunoblotting of CDK4 protein level in Calu-1 and MCF7 cells (FIG. 1A-1B); set-up: Cells that express cyclin D1-3 and CDK4/6 proteins were treated with heterobifunctional compounds; endogenous in cells; host or cells: Calu-1
# Method: as §1, §2, §3, §4
# [7] = test system: HCC1428 cells; assay: Flow cytometric analysis of Annexin V/7-AAD stained HCC1428 cells (apoptosis), 6 days (FIG. 3B); conditions: HCC1428, dose approximating IC90, 6 days
# Method: as §5
# [8] = test system: FoxM1; assay: Immunoblotting of FoxM1 protein level (FIG. 1A-1B); conditions: Calu-1 (4 hours), MCF7 (24 hours)
# Method: as §1, §2
# Calu-1, T47D, MCF7, HCC1428 and other cells were cultured at 37° C. with 5% CO2 in RPMI 1640 or DMEM medium supplemented with 10% fetal bovine serum. Cells were authenticated using the short tandem repeat (STR) assays. […]
# Cultured cells were washed with cold PBS once and lysed in cold RIPA buffer supplemented with protease inhibitors and phosphatase inhibitors (Beyotime Biotechnology). […] Total protein concentrations in the lysates were determined following BCA assays (Beyotime Biotechnology). […] Protein bands were quantitated using the Image Lab software provided by Bio-Rad.
# [9] = MCF7 cells, serum deprived 2 hours, treated 24 hours
# Chain of CDK4 (P11802 2-303 limits assumed): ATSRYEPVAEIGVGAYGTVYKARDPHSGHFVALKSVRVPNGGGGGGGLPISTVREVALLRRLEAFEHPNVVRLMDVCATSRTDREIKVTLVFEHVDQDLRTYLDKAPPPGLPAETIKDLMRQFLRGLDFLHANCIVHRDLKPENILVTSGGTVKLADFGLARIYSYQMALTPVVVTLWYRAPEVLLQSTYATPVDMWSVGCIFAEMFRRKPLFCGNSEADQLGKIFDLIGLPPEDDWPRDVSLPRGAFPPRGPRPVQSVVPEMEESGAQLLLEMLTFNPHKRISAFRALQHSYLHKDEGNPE
# Chain of CDK4 (P24385 whole entry partner): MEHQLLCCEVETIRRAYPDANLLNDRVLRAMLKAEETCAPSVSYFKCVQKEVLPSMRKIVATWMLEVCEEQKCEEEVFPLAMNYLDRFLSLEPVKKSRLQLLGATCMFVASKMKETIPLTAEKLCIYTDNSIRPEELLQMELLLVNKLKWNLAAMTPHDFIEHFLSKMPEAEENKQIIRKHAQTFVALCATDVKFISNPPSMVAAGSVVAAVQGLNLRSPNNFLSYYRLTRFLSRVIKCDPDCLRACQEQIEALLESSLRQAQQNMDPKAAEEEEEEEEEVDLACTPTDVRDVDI
# Chain of CDK4 (Q16531 2-1140 limits assumed): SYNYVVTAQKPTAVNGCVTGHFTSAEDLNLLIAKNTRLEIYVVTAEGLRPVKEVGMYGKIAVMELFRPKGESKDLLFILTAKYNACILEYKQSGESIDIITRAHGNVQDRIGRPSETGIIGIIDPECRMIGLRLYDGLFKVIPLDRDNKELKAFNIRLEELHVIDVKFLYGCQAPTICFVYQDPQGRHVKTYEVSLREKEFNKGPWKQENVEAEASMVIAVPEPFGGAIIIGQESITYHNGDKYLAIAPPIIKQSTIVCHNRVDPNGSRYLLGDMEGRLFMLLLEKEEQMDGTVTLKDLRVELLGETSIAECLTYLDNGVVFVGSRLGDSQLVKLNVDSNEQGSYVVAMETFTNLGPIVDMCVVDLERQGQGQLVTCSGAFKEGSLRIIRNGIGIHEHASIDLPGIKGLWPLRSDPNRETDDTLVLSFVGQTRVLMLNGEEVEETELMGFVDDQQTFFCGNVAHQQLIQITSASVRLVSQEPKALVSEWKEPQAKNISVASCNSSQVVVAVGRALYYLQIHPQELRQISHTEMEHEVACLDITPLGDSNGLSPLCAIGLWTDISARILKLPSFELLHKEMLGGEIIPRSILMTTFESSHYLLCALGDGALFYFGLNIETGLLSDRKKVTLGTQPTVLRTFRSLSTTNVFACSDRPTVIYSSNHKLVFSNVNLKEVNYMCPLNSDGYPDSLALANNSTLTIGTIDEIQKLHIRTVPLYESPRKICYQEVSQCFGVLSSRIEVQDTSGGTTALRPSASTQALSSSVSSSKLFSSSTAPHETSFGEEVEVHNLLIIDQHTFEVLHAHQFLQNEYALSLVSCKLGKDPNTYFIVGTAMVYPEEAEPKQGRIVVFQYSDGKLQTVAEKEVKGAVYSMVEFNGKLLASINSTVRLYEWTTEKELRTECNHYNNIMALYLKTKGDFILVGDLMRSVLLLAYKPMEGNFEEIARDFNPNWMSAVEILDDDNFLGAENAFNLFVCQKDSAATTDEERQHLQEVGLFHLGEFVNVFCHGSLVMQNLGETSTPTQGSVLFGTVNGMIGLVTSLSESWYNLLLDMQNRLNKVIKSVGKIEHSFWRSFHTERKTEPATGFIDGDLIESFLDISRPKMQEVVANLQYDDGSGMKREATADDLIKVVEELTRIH
smiles,measurement,setting,value
"CNc1ccc(C(=O)Nc2ccc(N(C)C)nn2)c(NCCCCCCCNC(=O)CN2CCN(c3ccc(Nc4ncc5c(C)c(C(C)=O)c(=O)n(C6CCCC6)c5n4)nc3)CC2)n1 [CPD-10, 2-((7-(2-(4-(6-((6-acetyl-8-cyclopentyl-5-methyl-7-oxo-7,8-dihydropyrido[2,3-d]pyrimidin-2-yl)amino)pyridin-3-yl)piperazin-1-yl)acetamido)heptyl)amino)-N-(6-(dimethylamino)pyridazin-3-yl)-6-(methylamino)nicotinamide]",IC50,[1],≤ 10 nM
same,IC50,[2],33 nM
same,CCND3 protein level,"[3]; Calu-1 cells, 4 hours","reduced CCND1, CCND3, and CDK4 protein levels in a concentration-dependent manner in both cell lines"
same,CCND3 protein level,[3]; [9],"reduced CCND1, CCND3, and CDK4 protein levels in a concentration-dependent manner in both cell lines"
same,cell viability in palbociclib-resistant model,[4],remained effective in T47D palbo-resistant model
same,Annexin V+ population,[5]; 15 nM,20.9%
same,Annexin V+ population,[5]; 200 nM,62.2%
same,CDK4 protein level,"[6]; Calu-1 cells, 4 hours","reduced CCND1, CCND3, and CDK4 protein levels in a concentration-dependent manner in both cell lines"
same,CDK4 protein level,[6]; [9],"reduced CCND1, CCND3, and CDK4 protein levels in a concentration-dependent manner in both cell lines"
same,Annexin V+ population,[7],55.8%
same,FoxM1 protein level,[8],"inhibited downstream FoxM1 and cyclin A2 protein levels, and Rb phosphorylation in a concentration-dependent manner"
